Laboratory results from PubChem BioAssay (NCI).
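In this assay, cells in 96-well plates receive the compound at five concentrations for 48 hours. Endpoints are linearly interpolated between the surrounding concentrations. Abbreviation: GI50, concentration required for 50% inhibition of growth. Definition used: TGI = concentration required for complete inhibition of growth.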 Where a SMILES comes first, the peptide text is derived from it. [ ]: non-standard residue; d: D form. The star is where a group is joined. ξ: configuration not given here. X16 = COC1=CC(=O)N(C(=O)C(O*)C(C)C)C1Cc1ccccc1; ξNMe2Val = CC(C)C(C(=O)*)N(C)C; NMeV = CN[CH](C(=O)O)C(C)C

How the values were obtained:
Experiment in all cases: NCI anticancer screen, dose series, 48 h
DU-145 prostate = test system: DU-145 prostate
EKVX NSCLC = test system: EKVX NSCLC
HCC-2998 colon = test system: HCC-2998 colon
HOP-62 NSCLC = test system: HOP-62 NSCLC
MALME-3M melanoma = test system: MALME-3M melanoma
MDA-MB-231 breast = test system: MDA-MB-231 breast
OVCAR-5 ovarian = test system: OVCAR-5 ovarian
OVCAR-8 ovarian = test system: OVCAR-8 ovarian
RXF 393 renal = test system: RXF 393 renal
SNB-75 CNS = test system: SNB-75 CNS

SMILES | TGI (DU-145 prostate) | TGI (EKVX NSCLC) | TGI (HCC-2998 colon) | TGI (HOP-62 NSCLC) | TGI (MALME-3M melanoma) | TGI (MDA-MB-231 breast) | TGI (OVCAR-5 ovarian) | TGI (OVCAR-8 ovarian) | TGI (RXF 393 renal) | TGI (SNB-75 CNS) | GI50 (HCC-2998 colon) | GI50 (HOP-62 NSCLC) | GI50 (MALME-3M melanoma) | GI50 (OVCAR-5 ovarian) | GI50 (OVCAR-8 ovarian) | GI50 (RXF 393 renal) | GI50 (SNB-75 CNS) | GI50 (DU-145 prostate) | GI50 (EKVX NSCLC) | GI50 (MDA-MB-231 breast)
O=c1c2cc([N+](=O)[O-])ccc2n2n1Cc1ccccc1CC2 | > 100 µM | 52.5 µM | > 100 µM | > 100 µM | > 100 µM | > 100 µM | > 100 µM | > 100 µM | > 100 µM | – | – | – | – | – | – | – | – | – | – | –
COc1ccc(-n2c(CCCC(=O)O)nc3c2C(=O)c2ccccc2C3=O)cc1 | > 100 µM | > 100 µM | > 100 µM | – | 59.7 µM | > 100 µM | > 100 µM | > 100 µM | – | > 100 µM | – | – | – | – | – | – | – | – | – | –
CC(C)(C)C1CC[C@H]2c3c([nH]c4ccc(Br)cc34)[C@H]3C(=O)N(c4ccccc4)C(=O)[C@H]3[C@H]2C1 (some centres undefined) | – | > 100 µM | > 100 µM | > 100 µM | > 100 µM | – | > 100 µM | 11.8 µM | > 100 µM | 54.9 µM | – | – | – | – | – | – | – | – | – | –
c1ccc2[nH]c(-c3nc4ccccc4o3)nc2c1 | – | > 100 µM | > 100 µM | > 100 µM | > 100 µM | – | > 100 µM | > 100 µM | – | > 100 µM | – | – | – | – | – | – | – | – | – | –
C=C(NC(=O)C(=C)NC(=O)c1csc(C2=NC3c4csc(n4)C4NC(=O)c5csc(n5)C(C(C)(O)C(C)O)NC(=O)C5CSC(=N5)/C(=C/C)NC(=O)C(C(C)O)NC(=O)c5csc(n5)C3(CC2)NC(=O)C(C)NC(=O)C(=C)NC(=O)C(=C)NC(=O)C(C(C)C)NC2C=Cc3c(C(C)O)cc(nc3C2O)C(=O)OC4C)n1)C(N)=O (centres undefined) | > 72.4 µM | > 100 µM | > 58.1 µM | > 100 µM | 0.786 µM | > 100 µM | 28.2 µM | 8.75 µM | – | > 100 µM | – | – | – | – | – | – | – | – | – | –
COC1=CC(=O)N(C(=O)C(OC(=O)C2CCCN2C(=O)C2CCCN2C(=O)C(C(C)C)N(C)C(=O)C(NC(=O)C(C(C)C)N(C)C)C(C)C)C(C)C)C1Cc1ccccc1 (centres undefined) (ξNMe2Val-V[NMeV]PP-X16; configuration not given here) | 0.00455 µM | 3.95 µM | – | > 4 µM | > 4 µM | – | > 4 µM | – | – | – | < 0.0004 µM | 0.00241 µM | < 0.0004 µM | > 4 µM | < 0.0004 µM | < 0.0004 µM | < 0.0004 µM | – | – | –
CN(C)[C@@H]1C(=O)C(C(N)=O)=C(O)[C@@]2(O)C(=O)C3=C(O)c4c(O)cccc4C[C@H]3C[C@@H]12 | – | – | – | 4.21 µM | 2.92 µM | – | – | 9.52 µM | 3.11 µM | 2.98 µM | – | – | – | – | – | – | – | – | – | –
CS(=O)(=O)NNS(=O)(=O)c1ccc(Br)cc1 | – | > 100 µM | > 100 µM | > 100 µM | > 100 µM | – | > 100 µM | > 100 µM | > 100 µM | > 100 µM | – | – | – | – | – | – | – | – | – | –
COc1ccc(NC(=S)NN=C(C)c2cccc(C(C)=NNC(=S)Nc3ccc(OC)cc3)n2)cc1 | > 100 µM | > 100 µM | > 100 µM | > 100 µM | > 100 µM | – | > 100 µM | > 100 µM | > 100 µM | > 100 µM | – | – | – | – | – | – | – | – | – | –
O=c1[nH]cnc2c1nnn2CCCn1nnc2c(=O)[nH]cnc21 | – | > 100 µM | > 100 µM | > 100 µM | – | – | > 100 µM | > 100 µM | > 100 µM | – | – | – | – | – | – | – | – | – | – | –
CC(=O)N[C@@H](Cc1ccc(O)cn1)C(=O)NCc1cccc(F)c1 | > 100 µM | > 100 µM | > 100 µM | > 100 µM | > 100 µM | – | > 100 µM | – | > 100 µM | – | – | – | – | – | – | – | – | – | – | –
c1cnc2c(c1)-n1cccc1C1(CCOCC1)NN2 | – | > 100 µM | > 100 µM | – | > 100 µM | – | – | > 100 µM | > 100 µM | > 100 µM | – | – | – | – | – | – | – | – | – | –
O=C(C=P(c1ccccc1)(c1ccccc1)c1ccccc1)C12CC3CC(CC(C3)C1)C2 | 39.3 µM | 29.3 µM | 32.1 µM | 32.3 µM | 38 µM | 32.9 µM | 32.7 µM | 34.5 µM | – | 33.3 µM | – | – | – | – | – | – | – | – | – | –
COC(=O)/C(=C/c1ccc(OC)cc1)C(C(=O)O)=C(C)C | – | > 100 µM | > 100 µM | > 100 µM | > 100 µM | – | > 100 µM | > 100 µM | > 100 µM | – | – | – | – | – | – | – | – | – | – | –
COc1c2cc(C(C)(C)C)cc1CSCc1cc(C(C)(C)C)cc(c1OC)CCCCC2 | > 50 µM | – | > 50 µM | > 50 µM | > 50 µM | > 50 µM | > 50 µM | > 50 µM | – | > 50 µM | – | – | – | – | – | – | – | – | – | –
Oc1c(Cl)c2nccnc2c2ccccc12 | – | > 100 µM | > 100 µM | – | > 100 µM | – | > 100 µM | > 100 µM | > 100 µM | > 100 µM | – | – | – | – | – | – | – | – | – | –
COc1ccc(C2CC(c3cc4c(C)c(C(=O)c5ccccc5)oc4cc3O)=Nc3ccccc3S2)cc1OC (centres undefined) | > 100 µM | > 100 µM | > 100 µM | > 34.3 µM | > 100 µM | > 100 µM | > 100 µM | > 100 µM | – | > 100 µM | – | – | – | – | – | – | – | – | – | –
CC(C)(C)C1CCC2c3c([nH]c4ccccc34)C3C(=O)N(c4cc(Br)cc(Br)c4)C(=O)C3C2C1 (centres undefined) | > 100 µM | 59.4 µM | 24.7 µM | 69.6 µM | > 100 µM | 58.8 µM | > 100 µM | 50.2 µM | – | – | – | – | – | – | – | – | – | – | – | –
O=C(NCc1cn(Cc2cccc(Oc3ccccc3)c2)nn1)c1cccnc1Nc1ccccc1 | 33.8 µM | > 100 µM | 21.8 µM | > 100 µM | > 100 µM | 5.97 µM | > 100 µM | > 100 µM | – | 9.96 µM | 3.7 µM | 5.58 µM | 16.1 µM | 5.73 µM | 4.39 µM | – | 1.94 µM | 3.94 µM | 5.18 µM | 2.25 µM
O=C1Nc2ccccc2C(=O)OC(Cc2ccccc2)=Nc2ccccc21 | > 100 µM | > 100 µM | > 100 µM | > 100 µM | – | – | > 100 µM | > 100 µM | > 100 µM | > 100 µM | – | – | – | – | – | – | – | – | – | –
COc1cc2c(cc1O)[C@H](C)C(c1ccc(Cl)cc1)O2 (some centres undefined) | – | 92.3 µM | 36.1 µM | 68.2 µM | 80.6 µM | – | > 100 µM | – | 77.5 µM | 43.3 µM | – | – | – | – | – | – | – | – | – | –
On1c(-c2ccccc2)c(-c2c(-c3ccccc3)n(O)c3ccccc23)c2ccccc21 | – | – | – | – | 79.7 µM | – | – | > 100 µM | > 100 µM | 94 µM | – | – | – | – | – | – | – | – | – | –
